From paper PMC11968843, “Sulphostin-inspired N-phosphonopiperidones as selective covalent DPP8 and DPP9 inhibitors” (Nature Communications, 2025)

Legend:
DPP8 [1] = target: T1, DPP8 (Homo sapiens, UniProt Q6V1X1); assay: biochemical; assay type: biochemical
T1 construct: purchased Proteros Biostructures GmbH, Germany
Method: (§1) Enzyme activity of DPP4, DPP8, DPP9 (Proteros Biostructures GmbH, Germany) and PREP (Sigma Aldrich, USA) was determined by measuring the initial velocity of AMC release from the fluorogenic substrate GP-AMC (Sigma Aldrich, USA) using a Tecan Spark® 10 M multimode microplate reader (Tecan Group Ltd., Switzerland) in activity buffer (20 mM HEPES/KOH pH 7.3, 110 mM potassium acetate, 2 mM Mg acetate, 0.5 mM EGTA, 0.02% Tween 20, supplemented with 1 mM DTT) and a final volume of 20 μL for maximal 60 min at 30 °C. Prior to activity measurement, 10 nM enzyme was incubated for 45 min at 30 °C and gentle shaking with the inhibitor compounds in concentrations ranging from 0 to 100 μM. The compounds were dissolved in DMSO and diluted in activity buffer (final DMSO concentration: 1%). […] IC50 values were calculated using Graph-Pad Prism v10.2.3 using the equation: [Inhibitor] vs. response—Variable slope (four parameters). All measurements were performed in triplicates and error bars represent standard errors of the fit.

DPP8 [2] = target: T1, DPP8; assay: Time-dependent DPP8 inhibition kinetics (kobs, KI, kinact, kapp); assay type: biochemical
Method: (§2) To calculate the reaction rate of covalent bond formation between DPP proteins and inhibitor, kinact, KI and kapp was determined as previously described[30],[51]. Therefore, 250 µM GP-AMC was added simultaneously with a serial dilution of the inhibitor to 10 nM enzyme. Enzyme activity was measured for a maximum of 120 min at 30 °C, and fluorescence intensities were then plotted against time. Data was fitted to the following equation: Y=(vi/kobs)*(1−exp(−kobs*X)) using Graph-Pad Prism v10.2.3. The obtained pseudo-first-order rate constant was used to determine the maximum enzyme inhibition rate (kinact) and binding affinity (KI) by fitting the plot of kobs against inhibitor concentration to the following equation: Y=kinact/1+(KI/[I]) . The efficiency of covalent bond formation (kapp) was calculated by the ratio of kinact/KI. All measurements were performed in triplicates and error bars represent standard errors of the fit.

[3] = test system: serine hydrolases (≡FP target proteins) in HEK293 cell lysates; assay: Competitive ABPP with fluorophosphonate-alkyne (≡FP) in HEK293 cell lysates; assay type: binding, H. sapiens; details: 50 µM pre-incubation 2 h, 2 µM ≡FP
DPP9 [4] = target: T2, DPP9 (Homo sapiens, UniProt Q86TI2); assay: biochemical; assay type: biochemical; parameters: purchased Proteros Biostructures GmbH, Germany
Method: as §1
Target sequence in this assay (Q86TI2 whole entry): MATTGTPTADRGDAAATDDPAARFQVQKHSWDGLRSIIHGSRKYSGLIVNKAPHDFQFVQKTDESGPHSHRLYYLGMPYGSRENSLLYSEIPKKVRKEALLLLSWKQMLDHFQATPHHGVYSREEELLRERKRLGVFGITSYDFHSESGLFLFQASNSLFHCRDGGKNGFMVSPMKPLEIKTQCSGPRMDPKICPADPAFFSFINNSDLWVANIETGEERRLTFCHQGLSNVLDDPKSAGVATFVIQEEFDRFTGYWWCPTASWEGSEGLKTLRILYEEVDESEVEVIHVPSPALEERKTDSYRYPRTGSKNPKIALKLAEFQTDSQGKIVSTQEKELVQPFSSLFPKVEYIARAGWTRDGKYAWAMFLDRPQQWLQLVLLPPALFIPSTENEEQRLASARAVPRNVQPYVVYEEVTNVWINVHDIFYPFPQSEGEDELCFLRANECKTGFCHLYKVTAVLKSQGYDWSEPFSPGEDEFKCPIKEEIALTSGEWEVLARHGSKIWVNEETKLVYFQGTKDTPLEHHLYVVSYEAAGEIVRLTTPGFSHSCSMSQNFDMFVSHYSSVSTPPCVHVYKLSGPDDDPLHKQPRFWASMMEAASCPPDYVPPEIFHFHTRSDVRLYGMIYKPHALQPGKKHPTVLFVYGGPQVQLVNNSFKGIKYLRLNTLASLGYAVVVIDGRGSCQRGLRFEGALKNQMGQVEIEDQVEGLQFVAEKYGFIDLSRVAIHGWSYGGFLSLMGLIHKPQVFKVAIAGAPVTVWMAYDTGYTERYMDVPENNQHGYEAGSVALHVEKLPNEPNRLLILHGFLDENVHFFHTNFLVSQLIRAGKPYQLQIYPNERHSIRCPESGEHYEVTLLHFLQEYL

DPP9 [5] = target: T2, DPP9; assay: Time-dependent DPP9 inhibition kinetics (kobs, KI, kinact, kapp); assay type: biochemical; parameters: purchased Proteros Biostructures GmbH, Germany
Method: as §2
Target sequence in this assay (Q86TI2 whole entry): as above

DPP9 [6] = target: T2, DPP9; assay: Native MS of DPP9 dimer after incubation with inhibitor; details: 50 µM, 90 min
Target sequence in this assay (Q86TI2 20-863): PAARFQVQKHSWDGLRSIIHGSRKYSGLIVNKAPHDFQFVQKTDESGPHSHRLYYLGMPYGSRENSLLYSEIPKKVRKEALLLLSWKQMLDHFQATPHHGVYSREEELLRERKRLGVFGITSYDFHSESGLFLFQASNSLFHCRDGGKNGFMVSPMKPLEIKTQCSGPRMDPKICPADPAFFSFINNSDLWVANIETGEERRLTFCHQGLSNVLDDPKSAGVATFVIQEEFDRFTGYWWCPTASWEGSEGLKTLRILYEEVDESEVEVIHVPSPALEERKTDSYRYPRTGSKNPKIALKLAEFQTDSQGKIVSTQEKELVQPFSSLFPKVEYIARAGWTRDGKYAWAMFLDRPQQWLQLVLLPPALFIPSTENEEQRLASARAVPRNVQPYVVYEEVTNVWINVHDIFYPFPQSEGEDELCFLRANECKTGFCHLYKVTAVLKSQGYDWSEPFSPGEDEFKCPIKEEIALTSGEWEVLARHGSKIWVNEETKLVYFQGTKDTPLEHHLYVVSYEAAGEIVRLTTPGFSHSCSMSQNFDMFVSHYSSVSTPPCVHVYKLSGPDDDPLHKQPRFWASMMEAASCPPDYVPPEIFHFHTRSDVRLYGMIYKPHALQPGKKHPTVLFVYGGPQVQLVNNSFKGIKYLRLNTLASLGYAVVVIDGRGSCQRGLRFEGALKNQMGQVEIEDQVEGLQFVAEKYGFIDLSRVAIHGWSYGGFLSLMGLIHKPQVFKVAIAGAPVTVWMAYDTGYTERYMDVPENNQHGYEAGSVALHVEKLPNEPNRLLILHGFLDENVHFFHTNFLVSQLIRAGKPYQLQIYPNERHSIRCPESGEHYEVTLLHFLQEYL
Method: For this purpose, a rebuffering procedure using 10 kDa molecular weight cut-off spin-filter columns (Merck Millipore, USA) was applied for five cycles[58]. The resulting protein concentration was determined using microvolume spectroscopy (DS-11+, DeNovix, USA) and adjusted to 5 µM with 200 mM NH4OAc. […] A total number of 1000 MS spectra were recorded in positive EMR mode on an Exactive Plus EMR Orbitrap mass spectrometer (Thermo Fisher Scientific, USA) calibrated with CsI (2 mg mL^-1; Thermo Fisher Scientific, USA).
UniDec software (version 6.0.4) was used for mass deconvolution[59]. For this purpose, the default settings were used within an m/z range of 6500 to 9500, with the exception of a higher deconvolution resolution (sample mass every 1 Da), a narrower peak detection window (peak detection range of 80 Da) and a total peak normalization. GraphPad Prism v8.0.1 was used for data visualization.

T1 sequence (Q6V1X1 whole entry): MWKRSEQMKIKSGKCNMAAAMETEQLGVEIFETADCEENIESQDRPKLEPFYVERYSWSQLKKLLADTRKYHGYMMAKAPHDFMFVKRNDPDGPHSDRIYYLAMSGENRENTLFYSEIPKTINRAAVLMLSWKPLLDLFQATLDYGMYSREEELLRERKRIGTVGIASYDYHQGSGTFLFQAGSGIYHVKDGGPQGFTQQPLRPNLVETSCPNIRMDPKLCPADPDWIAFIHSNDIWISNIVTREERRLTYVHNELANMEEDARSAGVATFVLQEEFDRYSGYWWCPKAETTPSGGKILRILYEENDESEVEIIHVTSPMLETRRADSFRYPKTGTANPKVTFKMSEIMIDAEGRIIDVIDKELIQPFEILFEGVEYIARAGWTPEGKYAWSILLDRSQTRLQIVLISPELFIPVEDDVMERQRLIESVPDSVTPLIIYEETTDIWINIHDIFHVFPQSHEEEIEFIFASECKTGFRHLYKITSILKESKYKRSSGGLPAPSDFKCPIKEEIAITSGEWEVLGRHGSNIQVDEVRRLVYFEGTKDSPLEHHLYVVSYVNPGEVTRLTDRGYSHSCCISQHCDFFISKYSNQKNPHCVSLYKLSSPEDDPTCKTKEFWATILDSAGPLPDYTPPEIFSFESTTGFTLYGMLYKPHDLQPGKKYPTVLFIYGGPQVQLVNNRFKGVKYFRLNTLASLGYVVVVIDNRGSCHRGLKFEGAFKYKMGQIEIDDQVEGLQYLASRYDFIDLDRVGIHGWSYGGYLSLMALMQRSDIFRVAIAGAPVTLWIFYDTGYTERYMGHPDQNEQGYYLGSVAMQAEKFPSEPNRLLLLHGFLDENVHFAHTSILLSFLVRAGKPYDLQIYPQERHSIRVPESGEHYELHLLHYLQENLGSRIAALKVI

With `N[C@H]1CCCN([P@@](N)(=O)NS(=O)(=O)O)C1=O` [Sulphostin] the IC50 (DPP8 [1]) was 6.93 ± 0.62 µM, the remaining activity at 1.5625 µM (DPP8 [1]; read-out: DPP8 activity [%], c 1562.5 nM) was 93.5% and the remaining activity at 3.125 µM (DPP8 [1]; read-out: DPP8 activity [%], c 3125 nM) was 73.6%. It also gave a remaining activity at 6.25 µM (DPP8 [1]; read-out: DPP8 activity [%], c 6250 nM) of 47.7%, a remaining activity at 25 µM (DPP8 [1]; read-out: DPP8 activity [%], c 25000 nM) of 11.8% and a remaining activity at 50 µM (DPP8 [1]; read-out: DPP8 activity [%], c 50000 nM) of 5.62%. The remaining activity at 100 µM (DPP8 [1]; read-out: DPP8 activity [%], c 100000 nM) was 3.57%, the “kobs DPP8” value (DPP8 [2]; c 1.5625 µM) was 3.383e-05 s⁻¹ and the “kobs DPP8” value (DPP8 [2]; c 6.25 µM) was 4.011e-05 s⁻¹. For the same molecule, the “kobs DPP8” value (DPP8 [2]; c 25 µM) was 0.0001308 s⁻¹, the “kobs DPP8” value (DPP8 [2]; c 50 µM) was 0.0001589 s⁻¹ and the “kapp DPP8” value (DPP8 [2]; ratio kinact/KI) was 11 M⁻¹ s⁻¹. For the same molecule, the KI (inactivation) (DPP8 [2]; read-out: KI [M] best fit DPP8, source data) was 2.11e-05 M, the “competition of ≡FP labeling” value [3] was “significantly competed only the labeling of DPP8/9” and the IC50 (DPP9 [4]) was 1.39 ± 0.108 µM. For the same molecule, the remaining activity at 0.15625 µM (DPP9 [4]; read-out: DPP9 activity [%], c 156.25 nM) was 93.2%, the remaining activity at 0.3125 µM (DPP9 [4]; read-out: DPP9 activity [%], c 312.5 nM) was 87.7% and the remaining activity at 2.5 µM (DPP9 [4]; read-out: DPP9 activity [%], c 2500 nM) was 28.5%. It also gave a remaining activity at 5 µM (DPP9 [4]; read-out: DPP9 activity [%], c 5000 nM) of 16.7%, a remaining activity at 10 µM (DPP9 [4]; read-out: DPP9 activity [%], c 10000 nM) of 10.8% and a remaining activity at 25 µM (DPP9 [4]; read-out: DPP9 activity [%], c 25000 nM) of 5%. For the same molecule, the remaining activity at 50 µM (DPP9 [4]; read-out: DPP9 activity [%], c 50000 nM) was 3.52%, the remaining activity at 100 µM (DPP9 [4]; read-out: DPP9 activity [%], c 100000 nM) was 2.34% and the “kobs DPP9” value (DPP9 [5]; c 0.15625 µM) was 6.239e-05 s⁻¹. The “kobs DPP9” value (DPP9 [5]; c 5 µM) was 0.0002112 s⁻¹, the “kapp DPP9” value (DPP9 [5]; ratio kinact/KI) was 317 M⁻¹ s⁻¹ and the KI (inactivation) (DPP9 [5]; read-out: KI [M] best fit DPP9, source data) was 7.33e-07 M. The “Difference [Da] between doubly and singly modified DPP9 dimer” value (DPP9 [6]) was 156 Da, the “Intensity [%] of DPP9 dimer with one modification” value (DPP9 [6]) was 44.37% and the “Intensity [%] of DPP9 dimer with two modifications” value (DPP9 [6]) was 32.64%. For the same molecule, the “Intensity [%] of unmodified DPP9 dimer” value (DPP9 [6]) was 22.99%, the “increase of DPP9 molecular weight, both active sites of the dimer modified” value (DPP9 [6]) was 311 Da and the “increase of DPP9 molecular weight, first adduct (one active site of the dimer modified)” value (DPP9 [6]) was 155 Da.
